In test [1] the test system is CD8+ T cells. Kind of test: In vitro T-cell priming assay with aAPCs loaded with peptide/MHC complexes and anti-CD28 antibody, multimer readout. The test is classed as cell-based, human. The following applies: in vitro immunogenicity, healthy HLA-A*02 donors; for donors: positive donors; for wells: positive wells. From the text: In order to obtain information regarding the immunogenicity of the TUMAPs of the present invention, the inventors performed investigations using an in vitro T-cell priming assay based on repeated stimulations of CD8+ T cells with artificial antigen presenting cells (aAPCs) loaded with peptide/MHC complexes and anti-CD28 antibody.
In order to perform in vitro stimulations by artificial antigen presenting cells loaded with peptide-MHC complex (pMHC) and anti-CD28 antibody, the inventors first isolated CD8+ T cells from fresh HLA-A*02 leukapheresis products via positive selection using CD8 microbeads (Miltenyi Biotec, Bergisch-Gladbach, Germany) of healthy donors obtained from the University clinics Mannheim, Germany, after informed consent.
PBMCs and isolated CD8+ lymphocytes were incubated in T-cell medium (TCM) until use consisting of RPMI-Glutamax (Invitrogen, Karlsruhe, Germany) supplemented with 10% heat inactivated human AB serum (PAN-Biotech, Aidenbach, Germany), 100 U/ml Penicillin/100 μg/ml Streptomycin (Cambrex, Cologne, Germany), 1 mM sodium pyruvate (CC Pro, Oberdorla, Germany), 20 μg/ml Gentamycin (Cambrex). 2.5 ng/ml IL-7 (PromoCell, Heidelberg, Germany) and 10 U/ml IL-2 (Novartis Pharma, Nürnberg, Germany) were also added to the TCM at this step.
Generation of pMHC/anti-CD28 coated beads, T-cell stimulations and readout was performed in a highly defined in vitro system using four different pMHC molecules per stimulation condition and 8 different pMHC molecules per readout condition.
The purified co-stimulatory mouse IgG2a anti human CD28 Ab 9.3 (Jung et al., 1987) was chemically biotinylated using Sulfo-N-hydroxysuccinimidobiotin as recommended by the manufacturer (Perbio, Bonn, Germany). Beads used were 5.6 μm diameter streptavidin coated polystyrene particles (Bangs Laboratories, Ill., USA).
800.000 beads/200 μl were coated in 96-well plates in the presence of 4×12.5 ng different biotin-pMHC, washed and 600 ng biotin anti-CD28 were added subsequently in a volume of 200 μl. Stimulations were initiated in 96-well plates by co-incubating 1×10^6 CD8+ T cells with 2×10^6 washed coated beads in 200 μl TCM supplemented with 5 ng/ml IL-12 (PromoCell) for 3 days at 37° C. Half of the medium was then exchanged by fresh TCM supplemented with 80 U/ml IL-2 and incubating was continued for 4 days at 37° C. This stimulation cycle was performed for a total of three times. For the pMHC multimer readout using 8 different pMHC molecules per condition, a two-dimensional combinatorial coding approach was used as previously described (Andersen et al., 2012) with minor modifications encompassing coupling to 5 different fluorochromes. Finally, multimeric analyses were performed by staining the cells with Live/dead near IR dye (Invitrogen, Karlsruhe, Germany), CD8-FITC antibody clone SK1 (BD, Heidelberg, Germany) and fluorescent pMHC multimers. For analysis, a BD LSRII SORP cytometer equipped with appropriate lasers and filters was used. Peptide specific cells were calculated as percentage of total CD8+ cells. Evaluation of multimeric analysis was done using the FlowJo software (Tree Star, Oregon, USA). In vitro priming of specific multimer+CD8+ lymphocytes was detected by comparing to negative control stimulations.

The target of test [2] is HLA-A*02:01 (Homo sapiens, UniProt P04439, D140Y/D185E/D98H/E176V/E277Q/G131W/G231S/I119V/I121R/I166T/I218V/L300P/L318F/N151K/N90K/P208A/P217A/Q86G/Q94H/R138H/R169H/T345S). Kind of test: MHC binding assay: UV-ligand exchange with beta2m ELISA. The note with it: MHC class I binding score, yield of UV-ligand exchange. From the text:
Candidate peptides for T cell based therapies according to the present invention were further tested for their MHC binding capacity (affinity). The individual peptide-MHC complexes were produced by UV-ligand exchange, where a UV-sensitive peptide is cleaved upon UV-irradiation, and exchanged with the peptide of interest as analyzed. Only peptide candidates that can effectively bind and stabilize the peptide-receptive MHC molecules prevent dissociation of the MHC complexes. To determine the yield of the exchange reaction, an ELISA was performed based on the detection of the light chain (β2m) of stabilized MHC complexes. The assay was performed as generally described in Rodenko et al. (Rodenko et al., 2006).
96 well MAXISorp plates (NUNC) were coated over night with 2 ug/ml streptavidin in PBS at room temperature, washed 4× and blocked for 1 h at 37° C. in 2% BSA containing blocking buffer. Refolded HLA-A*02:01/MLA-001 monomers served as standards, covering the range of 15-500 ng/ml. Peptide-MHC monomers of the UV-exchange reaction were diluted 100 fold in blocking buffer. Samples were incubated for 1 h at 37° C., washed four times, incubated with 2 ug/ml HRP conjugated anti-β2m for 1 h at 37° C., washed again and detected with TMB solution that is stopped with […]. Absorption was measured at 450 nm. Candidate peptides that show a high exchange yield (preferably higher than 50%, most preferred higher than 75%) are generally preferred for a generation and production of antibodies or fragments thereof, and/or T cell receptors or fragments thereof, as they show sufficient avidity to the MHC molecules and prevent dissociation of the MHC complexes.

As to “37 (GLLKKINSV; listed as Homo sapiens) [compound 37]”, in test [1], the “Wells positive [%]” value is reported as “+ (<20% = +)”. Also, in test [2], the Peptide exchange result is given as “++ (20%-49% = ++)”.

For “69 (VMAPFTMTI; listed as Homo sapiens) [compound 69]”, in test [1], the donors result is “++++ (>=70% = ++++)” and the wells result is “++ (20%-49% = ++)”.

With “20 (RLAGDGVGAV; listed as Homo sapiens) [compound 20]”, in test [1], the “Wells positive [%]” value is listed as “++++ (>=70% = ++++)”. Also, in test [2], the Peptide exchange entry is “++ (20%-49% = ++)”.

Regarding “34 (MLMPVHFLL; listed as Homo sapiens) [compound 34]”, the “Wells positive [%]” value in test [1] is reported as “+ (<20% = +)”. Further, the Peptide exchange result in test [2] is recorded as “++++ (>=75% = ++++)”.

Consider “87 (LLLGSPAAA; listed as Homo sapiens) [compound 87]”, for which, in test [1], the donors result is given as “+++ (50%-69% = +++)” and the wells entry is reported as “+ (<20% = +)”.

For “23 (SLSAFTLFL; listed as Homo sapiens) [compound 23]”, the “Wells positive [%]” value in test [1] was “++ (20%-49% = ++)”. Also, in test [2], the Peptide exchange entry was “++ (20%-49% = ++)”.

On to “21 (HLMDQPLSV; listed as Homo sapiens) [compound 21]”, for which the “Wells positive [%]” value in test [1] is given as “+ (<20% = +)”. The Peptide exchange entry in test [2] was “++ (20%-49% = ++)”.

On to “50 (ALAAILTRL; listed as Homo sapiens) [compound 50]”, for which the “Wells positive [%]” value in test [1] was “+++ (50%-69% = +++)”. Besides, in test [2], the Peptide exchange result is given as “+++ (50%-75% = +++)”.

For the substance “3 (ALLTFMEQV; listed as Homo sapiens) [compound 3]”, the “Wells positive [%]” value in test [1] is reported as “++ (20%-49% = ++)”. The Peptide exchange entry in test [2] was “+++ (50%-75% = +++)”.

The values above are taken from patent publication US10898561B2, “Peptides and combination of peptides for use in immunotherapy against pancreatic cancer and other cancers” (IMMATICS BIOTECHNOLOGIES GMBH, priority 2015, dated 2021).
